Measurements from patent publication US20100041089A1, “IMPROVED METHOD FOR DETECTING CHEMICAL […]” (priority 2006, published 2010).

Tested on: yeast genes (expressed mRNA)
Assay: DNA chip measurement of expressed mRNA of yeast genes after culture with a toxic chemical substance
Type: cell-based, Saccharomyces cerevisiae S288C
Conditions: for level of expressed mRNA in the presence of chemical substance / level in the absence of chemical substance: cultured two hours with the chemical substance; for The level of expressed mRNA in the presence of chemical substance/The level of expressed mRNA in the absence of chemical substance: cultured two hours with substance
Experimental: Yeast (Saccharomyces cerevisiae S288C (a SUC2mal mel gap2 CUP1)) were cultured at 25° C. on YPD medium (yeast extract 1%, polypeptone 2%, glucose 2%). One of toxic chemical substances was added to the cell at logarithmic growth phase, and the cell was further cultured for two hours. Cell was cultured without any chemical substance in the same condition, and was used as a control. Concentrations of the chemical substances were defined to inhibit the growth of the yeast but not lead to death.
After the completion of cultivation, the culture was centrifuged to collect the cells. To the cells, sodium acetate buffer (50 mM sodium acetate, 10 mM EDTA, 1% SDS) was added, and the mixture was shaken at 65° C. for five minutes, followed by returning to room temperature, and obtaining the supernatant, which procedure was repeated two times. To the supernatant, ½ amount of a solution of phenol/chloroform (1:1) was added, and the mixture was centrifuged to give a supernatant, an equal amount of chloroform was added, and the mixture was centrifuged to give a supernatant. To the supernatant, an equal amount of isopropanol containing 0.3 M sodium acetate was added, and the mixture was allowed to stand at room temperature for 30 minutes, after which the mixture was centrifuged to give sediment of the whole RNAs. Seventy % ethanol was added to the sediment, and the mixture was again centrifuged to give sediment, which was then dried and dissolved in water. mRNA was isolated from the whole RNAs as followings. In view of the fact that a poly A chain is attached to the 3′ terminus of mRNA, a polynucleotide having a poly T structure which was immobilized on the surface of latex beads was used to trap the mRNA, and then the mRNA was washed and eluted with spine column (Oligotex-dT30<Super>mRNA Purification Kit, Takara). Reverse transcription of the mRNA was conducted with a reverse transcriptase (Super Script II Reverse Transcriptase; catalogue No. 18064-014, GibcoBRL) using fluorescence-labeled nucleotides to give cDNAs that were introduced with Cy3-dUTP or Cy5-dUTP during the reverse transcription.
The labeled cDNAs were dissolved in TE buffer (10 mM Tris-HCl/1 mM EDTA, pH 8.0), and the solution was dropped on the DNA chip containing the whole genes of yeast (DNA Chip Research Inc. Japan) so that the cDNAs were hybridized on the DNA chip at 65° C. for over 12 hours. The fluoresces intensity of the DNA chip was read with a scanner, and the ratio relative to the fluorescence intensity resulting from the absence of chemical substance was estimated as the following, which is shown in Tables 1 to 9.
In the Tables, “Intensity” indicated in the rightmost column is a value of the level of expressed mRNA of each gene in control cells as divided by the average level of the expressions of the whole genes. A gene of which mRNA level is lower in control, and is higher in cases of addition of chemical substance, is especially useful in the detection of toxic substances.
Here, when a ratio of an amount of mRNA expressed in the presence of the chemical substance to an amount of mRNA expressed in the absence of the chemical substance is two or more, then it is considered significant.

[Cl][Cd][Cl] [(2), CdCl2]
The level of expressed mRNA in the presence of chemical substance/The level of expressed mRNA in the absence of chemical substance, yeast gene YBR036C (gene YBR036C, Metabolism protein genes, DNA chip fluorescence ratio): 1.7
The level of expressed mRNA in the presence of chemical substance/The level of expressed mRNA in the absence of chemical substance, yeast gene YBR298C (gene YBR298C, Metabolism protein genes, DNA chip fluorescence ratio): 1.0
The level of expressed mRNA in the presence of chemical substance/The level of expressed mRNA in the absence of chemical substance, yeast gene YDL067C (gene YDL067C (mitochondria-located protein gene), yeast cultured two hours with chemical substance, DNA chip fluorescence ratio to control): 1.0
The level of expressed mRNA in the presence of chemical substance/The level of expressed mRNA in the absence of chemical substance, yeast gene YDL078C (gene YDL078C, Metabolism protein genes, DNA chip fluorescence ratio): 1.1
The level of expressed mRNA in the presence of chemical substance/The level of expressed mRNA in the absence of chemical substance, yeast gene YDL215C (gene YDL215C, Metabolism protein genes, DNA chip fluorescence ratio): 1.5
The level of expressed mRNA in the presence of chemical substance/The level of expressed mRNA in the absence of chemical substance, yeast gene YDR079W (gene YDR079W (mitochondria-located protein gene), yeast cultured two hours with chemical substance, DNA chip fluorescence ratio to control): 1.1
The level of expressed mRNA in the presence of chemical substance/The level of expressed mRNA in the absence of chemical substance, yeast gene YDR297W (gene YDR297W, Metabolism protein genes, DNA chip fluorescence ratio): 0.8
The level of expressed mRNA in the presence of chemical substance/The level of expressed mRNA in the absence of chemical substance, yeast gene YDR387C (gene YDR387C, Metabolism protein genes, DNA chip fluorescence ratio): 0.9
The level of expressed mRNA in the presence of chemical substance/The level of expressed mRNA in the absence of chemical substance, yeast gene YGL035C (gene YGL035C, Metabolism protein genes, DNA chip fluorescence ratio): 1.4
The level of expressed mRNA in the presence of chemical substance/The level of expressed mRNA in the absence of chemical substance, yeast gene YGR062C (gene YGR062C (mitochondria-located protein gene), yeast cultured two hours with chemical substance, DNA chip fluorescence ratio to control): 1.0
The level of expressed mRNA in the presence of chemical substance/The level of expressed mRNA in the absence of chemical substance, yeast gene YGR287C (gene YGR287C, Metabolism protein genes, DNA chip fluorescence ratio): 1.0
The level of expressed mRNA in the presence of chemical substance/The level of expressed mRNA in the absence of chemical substance, yeast gene YJL070C (gene YJL070C, Metabolism protein genes, DNA chip fluorescence ratio): 0.9
The level of expressed mRNA in the presence of chemical substance/The level of expressed mRNA in the absence of chemical substance, yeast gene YJL096W (gene YJL096W (mitochondria-located protein gene), yeast cultured two hours with chemical substance, DNA chip fluorescence ratio to control): 1.0
The level of expressed mRNA in the presence of chemical substance/The level of expressed mRNA in the absence of chemical substance, yeast gene YJL180C (gene YJL180C (mitochondria-located protein gene), yeast cultured two hours with chemical substance, DNA chip fluorescence ratio to control): 1.6
The level of expressed mRNA in the presence of chemical substance/The level of expressed mRNA in the absence of chemical substance, yeast gene YKR009C (gene YKR009C, Metabolism protein genes, DNA chip fluorescence ratio): 1.2
The level of expressed mRNA in the presence of chemical substance/The level of expressed mRNA in the absence of chemical substance, yeast gene YLR295C (gene YLR295C (mitochondria-located protein gene), yeast cultured two hours with chemical substance, DNA chip fluorescence ratio to control): 1.1
The level of expressed mRNA in the presence of chemical substance/The level of expressed mRNA in the absence of chemical substance, yeast gene YLR351C (gene YLR351C, Metabolism protein genes, DNA chip fluorescence ratio): 1.4
The level of expressed mRNA in the presence of chemical substance/The level of expressed mRNA in the absence of chemical substance, yeast gene YLR375W (gene YLR375W, Metabolism protein genes, DNA chip fluorescence ratio): 1.5
The level of expressed mRNA in the presence of chemical substance/The level of expressed mRNA in the absence of chemical substance, yeast gene YMR023C (gene YMR023C (mitochondria-located protein gene), yeast cultured two hours with chemical substance, DNA chip fluorescence ratio to control): 1.3
The level of expressed mRNA in the presence of chemical substance/The level of expressed mRNA in the absence of chemical substance, yeast gene YMR267W (gene YMR267W (mitochondria-located protein gene), yeast cultured two hours with chemical substance, DNA chip fluorescence ratio to control): 1.8
The level of expressed mRNA in the presence of chemical substance/The level of expressed mRNA in the absence of chemical substance, yeast gene YMR267W (gene YMR267W, Metabolism protein genes, DNA chip fluorescence ratio): 1.8
The level of expressed mRNA in the presence of chemical substance/The level of expressed mRNA in the absence of chemical substance, yeast gene YMR278W (gene YMR278W, Metabolism protein genes, DNA chip fluorescence ratio): 1.7
The level of expressed mRNA in the presence of chemical substance/The level of expressed mRNA in the absence of chemical substance, yeast gene YMR293C (gene YMR293C, Metabolism protein genes, DNA chip fluorescence ratio): 1.5
The level of expressed mRNA in the presence of chemical substance/The level of expressed mRNA in the absence of chemical substance, yeast gene YNL073W (gene YNL073W (mitochondria-located protein gene), yeast cultured two hours with chemical substance, DNA chip fluorescence ratio to control): 1.4
The level of expressed mRNA in the presence of chemical substance/The level of expressed mRNA in the absence of chemical substance, yeast gene YNR072W (gene YNR072W, Metabolism protein genes, DNA chip fluorescence ratio): 1.5
The level of expressed mRNA in the presence of chemical substance/The level of expressed mRNA in the absence of chemical substance, yeast gene YOL096C (gene YOL096C, Metabolism protein genes, DNA chip fluorescence ratio): 1.0
The level of expressed mRNA in the presence of chemical substance/The level of expressed mRNA in the absence of chemical substance, yeast gene YOR180C (gene YOR180C, Metabolism protein genes, DNA chip fluorescence ratio): 1.1
The level of expressed mRNA in the presence of chemical substance/The level of expressed mRNA in the absence of chemical substance, yeast gene YOR316C (gene YOR316C (mitochondria-located protein gene), yeast cultured two hours with chemical substance, DNA chip fluorescence ratio to control): 2.5
The level of expressed mRNA in the presence of chemical substance/The level of expressed mRNA in the absence of chemical substance, yeast gene YOR363C (gene YOR363C, Metabolism protein genes, DNA chip fluorescence ratio): 2.0
The level of expressed mRNA in the presence of chemical substance/The level of expressed mRNA in the absence of chemical substance, yeast gene YPL040C (gene YPL040C (mitochondria-located protein gene), yeast cultured two hours with chemical substance, DNA chip fluorescence ratio to control): 1.0
The level of expressed mRNA in the presence of chemical substance/The level of expressed mRNA in the absence of chemical substance, yeast gene YPL134C (gene YPL134C (mitochondria-located protein gene), yeast cultured two hours with chemical substance, DNA chip fluorescence ratio to control): 1.0
The level of expressed mRNA in the presence of chemical substance/The level of expressed mRNA in the absence of chemical substance, yeast gene YPR184W (gene YPR184W, Metabolism protein genes, DNA chip fluorescence ratio): 1.4
level of expressed mRNA in the presence of chemical substance / level in the absence of chemical substance (yeast gene YAL018C): 1.9
The level of expressed mRNA in the presence of chemical substance/The level of expressed mRNA in the absence of chemical substance (yeast gene YAL053W): 0.9
level of expressed mRNA in the presence of chemical substance / level in the absence of chemical substance (yeast gene YAR047C): 1.7
level of expressed mRNA in the presence of chemical substance / level in the absence of chemical substance (yeast gene YAR064W): 0.9
level of expressed mRNA in the presence of chemical substance / level in the absence of chemical substance (yeast gene YBL044W): 2.7
The level of expressed mRNA in the presence of chemical substance/The level of expressed mRNA in the absence of chemical substance (yeast gene YBL048W): 7.9
The level of expressed mRNA in the presence of chemical substance/The level of expressed mRNA in the absence of chemical substance (yeast gene YBL107C): 1.1
level of expressed mRNA in the presence of chemical substance / level in the absence of chemical substance (yeast gene YBR012C): 1.7
level of expressed mRNA in the presence of chemical substance / level in the absence of chemical substance (yeast gene YBR066C): 1.3
level of expressed mRNA in the presence of chemical substance / level in the absence of chemical substance (yeast gene YBR124W): 1.4
level of expressed mRNA in the presence of chemical substance / level in the absence of chemical substance (yeast gene YBR162C): 0.5
level of expressed mRNA in the presence of chemical substance / level in the absence of chemical substance (yeast gene YBR287W): 1.9
level of expressed mRNA in the presence of chemical substance / level in the absence of chemical substance (yeast gene YCL042W): 2.5
level of expressed mRNA in the presence of chemical substance / level in the absence of chemical substance (yeast gene YCL056C): 1.4
level of expressed mRNA in the presence of chemical substance / level in the absence of chemical substance (yeast gene YCR007C): 1.6
level of expressed mRNA in the presence of chemical substance / level in the absence of chemical substance (yeast gene YDL046W): 1.4
The level of expressed mRNA in the presence of chemical substance/The level of expressed mRNA in the absence of chemical substance (yeast gene YDL072C): 1.1
The level of expressed mRNA in the presence of chemical substance/The level of expressed mRNA in the absence of chemical substance (yeast gene YDL204W): 1.9
The level of expressed mRNA in the presence of chemical substance/The level of expressed mRNA in the absence of chemical substance (yeast gene YDL222C): 1.1
level of expressed mRNA in the presence of chemical substance / level in the absence of chemical substance (yeast gene YDR090C): 3.0
